{
  "source": "paper PMC10470178",
  "about": "“Long-acting lenacapavir protects macaques against intravenous challenge with simian-tropic HIV” (eBioMedicine, 2023)",
  "key": {"[1]": {"format": "in vivo, pigtail macaques (Macaca nemestrina)", "description": "Sixteen male, purpose-bred pigtail macaques (Macaca nemestrina; ages 4.6–8.5 years at the time of study initiation) were housed at NIH-Bethesda (Supplementary Table S1). All study animals received enrofloxacin (10 mg/kg, administered orally, once per day for 10 days), paromomycin (25 mg/kg, administered orally, twice daily for 7–10 days), and fenbendazole (50 mg/kg administered orally, once per day for 5 days) two weeks to 43 months prior to study initiation. Lenacapavir or drug vehicle (sterile, preservative-free 57.5% w/v polyethylene glycol 300 in water) doses were administered to sedated animals via SC injection into the scapular region such that no more than 2 ml of solution was injected into a single SC site. Animals in the LEN pharmacokinetic evaluation study (N = 6) each received two doses of LEN, both at 15 mg/kg (N = 3) or at 50 mg/kg (N = 3), 6 weeks apart. Animals in the virus challenge experiment each received a single dose of LEN at 25 mg/kg (N = 3, LEN PrEP group) or drug vehicle (N = 4, vehicle control group) 30 days prior to stHIV-A19 challenge, or a cART regimen consisting of tenofovir disoproxil fumarate (TDF), emtricitabine (FTC), and dolutegravir (DTG) (N = 3, TDF/FTC/DTG group), coformulated and administered as previously described[29]^,[30] for 7 days beginning 3 days prior to stHIV-A19 challenge (Supplementary Figure S1). Hair was clipped and skin marked at LEN and vehicle injection sites to allow for subsequent visual and manual assessment and scoring of potential ISRs by non-blinded veterinary care staff. Complete blood counts (CBC) and serum chemistries were monitored prior to and at 2- to 4-week intervals after LEN administration for at least one year. Following the first dose of LEN in the PK study, one animal in the 50-mg/kg dosing group received 7 consecutive days of daily ketoprofen (2 mg/kg) administered intramuscularly for ISR analgesia at veterinary discretion. For the second dose of LEN in the PK study, all animals in the 50-mg/kg dosing group received 5–7 consecutive days of twice daily oral carprofen (2 mg/kg) analgesia administered prophylactically starting on the day of LEN dosing. In the IV challenge PrEP study, all LEN and vehicle control animals received 3–5 consecutive days of twice daily oral carprofen (2 mg/kg) analgesia administered prophylactically starting on the day of injection. For virus challenge, PrEP study animals each received 1 × 10^5 infectious units of stHIV-A19 injected intravenously. After LEN washout, LEN PrEP group animals received a single 50-mg/kg dose of rhesusized depleting anti-CD8α antibody (MT807R1, RRID: AB_2716320, NIH Nonhuman Primate Reagent Resource), administered SC to anesthetized animals."}, "SIVmac239": {"tested_on": "SIVmac239", "test": "Multi-round viral replication assay in SupT1-CCR5 cells, SIVmac239", "format": "cell-based, SIV", "description": "(§1) Infectious stocks of stHIV-A19,[23] HIV-1 NL4-3, and SIVmac239 were produced in HEK-293T (RRID: CVCL_1926) cells transfected with full-length viral genome plasmids using the TransIT HEK-293 transfection reagent (Mirus Bio) according to the manufacturer’s instructions. Virus stock infectious titres were determined on TZM-bl reporter cells (RRID: CVCL_B478) as previously described.[26] For experiments using SupT1-CCR5 target cells (RRID: CVCL_X633),[27] cultures were maintained in RPMI 1640 medium supplemented with 10% foetal bovine serum (FBS), 2 mM glutamine, 100 U/ml penicillin, and 100 μg/ml streptomycin. […] Cells were then washed three times to remove input virus, counted, and cultured in triplicate in growth media containing serial threefold dilutions of LEN or no LEN (control). […] Culture supernatants were collected 7 days post-inoculation, clarified by centrifugation, and stored at −80 °C for later quantification of vRNA by quantitative reverse transcription polymerase chain reaction (qRT-PCR). […] The stHIV-A19 stock was quantified with a SYBR Green-based qPCR-based product-enhanced RT (PERT) assay using a purified reverse transcriptase (RT) protein standard, as previously described.[28] […] After 7 days, the virus in culture supernatants was quantified using the PERT assay. […]"}, "HIV-1 NL4-3": {"tested_on": "HIV-1 NL4-3", "test": "Multi-round viral replication assay in SupT1-CCR5 cells, HIV-1 NL4-3", "format": "cell-based", "conditions": "Human immunodeficiency virus 1, NL43, 168 h, supernatant vRNA 7 days post-infection, mean ± SD of three independent experiments, read-out: mean EC50 against HIV-1 NL4-3", "description": "as §1"}},
  "note": "Like-named read-outs stand apart in the source and are kept apart here.",
  "data": [
    {"compound": "CC(C)(C#Cc1ccc(-c2ccc(Cl)c3c(NS(C)(=O)=O)nn(CC(F)(F)F)c23)c([C@H](Cc2cc(F)cc(F)c2)NC(=O)Cn2nc(C(F)(F)F)c3c2C(F)(F)[C@@H]2C[C@H]32)n1)S(C)(=O)=O", "note": "[LEN, Lenacapavir]", "values": [
      {"measurement": "ISR cumulative incidence: Erythema", "setting": "[1]; 15 mg/kg SC, Dose 1", "result": "3/3"},
      {"measurement": "ISR cumulative incidence: Hyperkeratosis", "setting": "[1]; 15 mg/kg SC, Dose 1", "result": "2/3"},
      {"measurement": "ISR cumulative incidence: Nodule", "setting": "[1]; 15 mg/kg SC, Dose 1", "result": "3/3"},
      {"measurement": "ISR cumulative incidence: Ulceration", "setting": "[1]; 15 mg/kg SC, Dose 1", "result": "0/3"},
      {"measurement": "ISR cumulative incidence: Erythema", "setting": "[1]; 15 mg/kg SC, Dose 2", "result": "0/3"},
      {"measurement": "ISR cumulative incidence: Hyperkeratosis", "setting": "[1]; 15 mg/kg SC, Dose 2", "result": "0/3"},
      {"measurement": "ISR cumulative incidence: Nodule", "setting": "[1]; 15 mg/kg SC, Dose 2", "result": "1/3"},
      {"measurement": "ISR cumulative incidence: Ulceration", "setting": "[1]; 15 mg/kg SC, Dose 2", "result": "0/3"},
      {"measurement": "ISR cumulative incidence: Erythema", "setting": "[1]; 25 mg/kg SC, Dose 1", "result": "0/3"},
      {"measurement": "ISR cumulative incidence: Hyperkeratosis", "setting": "[1]; 25 mg/kg SC, Dose 1", "result": "2/3"},
      {"measurement": "ISR cumulative incidence: Nodule", "setting": "[1]; 25 mg/kg SC, Dose 1", "result": "3/3"},
      {"measurement": "ISR cumulative incidence: Ulceration", "setting": "[1]; 25 mg/kg SC, Dose 1", "result": "2/3"},
      {"measurement": "ISR cumulative incidence: Erythema", "setting": "[1]; 50 mg/kg SC, Dose 1", "result": "0/3"},
      {"measurement": "ISR cumulative incidence: Hyperkeratosis", "setting": "[1]; 50 mg/kg SC, Dose 1", "result": "0/3"},
      {"measurement": "ISR cumulative incidence: Nodule", "setting": "[1]; 50 mg/kg SC, Dose 1", "result": "3/3"},
      {"measurement": "ISR cumulative incidence: Ulceration", "setting": "[1]; 50 mg/kg SC, Dose 1", "result": "1/3"},
      {"measurement": "ISR cumulative incidence: Erythema", "setting": "[1]; 50 mg/kg SC, Dose 2", "result": "0/3"},
      {"measurement": "ISR cumulative incidence: Hyperkeratosis", "setting": "[1]; 50 mg/kg SC, Dose 2", "result": "2/3"},
      {"measurement": "ISR cumulative incidence: Nodule", "setting": "[1]; 50 mg/kg SC, Dose 2", "result": "3/3"},
      {"measurement": "ISR cumulative incidence: Ulceration", "setting": "[1]; 50 mg/kg SC, Dose 2", "result": "2/3"},
      {"measurement": "complete blood counts (CBC) and blood serum chemistries", "setting": "[1]; PTMs that received SC LEN injections", "result": "No abnormalities or significant changes"},
      {"measurement": "injection site reactions (ISRs), severity", "setting": "[1]; some animals following some SC LEN injections", "result": "Mild to moderate"},
      {"measurement": "reduced potency against SIVmac239 compared with HIV-1 NL4-3 and stHIV-A19", "setting": "SIVmac239", "result": "approximately 6 fold"},
      {"measurement": "EC50", "setting": "SIVmac239; Simian immunodeficiency virus, 168 h, supernatant vRNA 7 days post-infection, mean ± SD of three independent experiments, read-out: mean EC50 against SIVmac239", "result": 0.502, "unit": "nM"},
      {"measurement": "EC50", "setting": "HIV-1 NL4-3", "result": 0.086, "unit": "nM"}
    ]}
  ]
}
